Data from patent EP0639197B1, “EXCITATORY AMINO ACID ANTAGONISTS” (GUILFORD PHARMACEUTICALS INC., priority 1990, dated 1992).

Legend:
[1] = Rotorod test for motor impairment after i.c.v. administration; design: species or system male CF-1 mice; settings: mouse, in vivo, icv or intrathecal; potency to impair rotorod performance; tested 10 minutes after i.c.v. administration; enriched mixtures, less than about 95% pure
Protocol: (§1) Anticonvulsant studies: The potency of the isomers of APCA to inhibit NMDA-induced seizures was evaluated using male CF-1 mice. All drugs were dissolved in isotonic saline and the pH adjusted to neutrality using NaOH. The test compounds were injected intracerebroventricularly (i.c.v.) in a final volume of […]. N-Methyl-D-aspartate (250mg/kg of body weight) was dissolved in saline (1% v/w of body weight) and injected intraperitoneally (i.p.) 15 minutes following the administration of the test agent. […] NMDA-induced seizures were defined as presence of tonic/clonic activity accompanied by hindlimb extension and death. Rotorod: Animals used for seizure studies were evaluated for motor impairment using the rotorod test. Before use all animals were tested for their ability to maintain equilibrium for 60 seconds on a 1-inch knurled bar rotating at a speed of 6 to 7 rpm. Each animal was given three separate trials. Animals performing the task in any of the three trials were used for further study.
Animals were tested for impairment 10 minutes after i.c.v. administration of the test agent and 5 minutes before administration of the seizure-inducing agent. Each animal was tested on a maximum of three trials; completion of any one of the trials was screened as passing.

[2] = Inhibition of NMDA-induced seizures after i.c.v. administration; type: in vivo, male CF-1 mice; settings: mouse, in vivo, icv or intrathecal; ratio of rotorod TD50 to NMDA-seizure ED50; ICV administration
Protocol: as §1

NMDA-induced seizures = assay: as above; type: in vivo, male CF-1 mice; settings: for ED50: Mus musculus, central, potency to inhibit NMDA-induced seizures, ICV administration 15 minutes before NMDA 250mg/kg i.p., mixtures enriched in the stated isomer, less than about 95% pure
Protocol: as §1

NMDA receptors = assay: Inhibition of specific binding of [3H]CGS-19755 to rat forebrain membranes; settings: for IC50: [3H]CGS-19755 4.62 x 10^-9 M, rat forebrain membranes, 20min, 23 C, enriched mixtures, less than about 95% pure
Protocol: Binding studies: The potency of compounds to inhibit the specific binding of [^3H]CGS-19755 (specific activity 50.5 Ci/mmol, New England Nuclear, Boston, MA) to NMDA receptors was performed as described by Ferkany et al., (J. Pharmacology and Experimental Therapeutics, 1989, 250:100-109). Briefly, animals were sacrificed by decapitation, the forebrain removed immediately and the "buffy coat" prepared as described by Enna and Snyder (Enna, S. and Snyder, S.H., Molecular Pharmacology, 1977, 13:422-433). Crude synaptic membranes were stored frozen (-20 °C) until used. On the day of the assay, membranes were thawed to room temperature and homogenized in 20 vol (w/v) of assay buffer. The homogenate was centrifuged (48,000 x g; 10min; 4 °C), the supernatant decanted and the pellet resuspended as before. The procedure was repeated until the tissue had been washed 4 times to remove endogenous inhibitors.
For assay, the final pellet was resuspended in sufficient buffer (Tris HCl, 0.05M, pH 7.1, 23 °C) to yield a tissue concentration of 0.2mg of protein per ml. Two-milliliter portions of the suspension were added in duplicate to tubes containing ligand (final concentration = 4.62 x 10^- ^9 M) and the compound of interest ([…]). After an incubation of 20min (23 °C), the reaction was terminated by centrifugation, the supernatant was decanted and the pellets washed rapidly and superficially with 2 x 2.5ml of ice-cold buffer. Tissue was solubilized in Protosol (0.5 ml, New England Nuclear, Boston, MA) and after the addition of scintillant, radioactivity was determined using standard procedures.
Non specific binding was determined using L-glutamate at a final concentration of 10^-3 M. Routinely, IC50s were determined using 8-12 concentrations of inhibitor.

| SMILES | TD50 at 10 min [1] [mg/kg] | selectivity ratio [2] | ED50 (NMDA-induced seizures) [mg/kg] | IC50 (NMDA receptors) [µM] | fold more potent than cis isomer C, the next most potent isomer (NMDA receptors; binding data of Table 2) | fold more potent than the next most potent isomer (NMDA-induced seizures; in vivo effects of Table 1) |
| --- | --- | --- | --- | --- | --- | --- |
| O=C(O)[C@H]1C[C@@H](CP(=O)(O)O)CCN1 (relative stereo) [CGS-19755, cis-4-(phosphonomethyl)-2-piperidinecarboxylic acid, reference compound] | 17 | 6.4 | 2.64 |  |  |  |
| N[C@H](C[C@H]1CCCC[C@H]1CCP(=O)(O)O)C(=O)O (single isomer, unassigned) [cis isomer A, 2-amino-4,5-(1,2-cyclohexyl)-7-phosphonoheptanoic acid] | 32 | 30.5 | 1.05 | 0.27 ± 0.012 | approximately 8 fold | at least 25 fold |
| O=C(O)C1CN(CCCP(=O)(O)O)CCN1 (racemic) [(±) CPP, 4-(3-phosphonopropyl)-2-piperazine carboxylic acid, reference compound] | 10 | 4.5 | 2.2 | 0.19 ± 0.015 |  |  |
